{"source": "paper PMC11091967", "about": "“Silicon-Rhodamine Functionalized Evocalcet Probes Potently and Selectively Label Calcium Sensing Receptors In Vitro, In Vivo, and Ex Vivo” (ACS Pharmacology & Translational Science, 2024)", "key": {"[1]": {"assay": "Photophysical characterization", "format": "physicochemical", "parameters": "λex / λem: unit not given here"}, "[2]": {"biological_target": "T1, bovine serum albumin (BSA) (Bos taurus, UniProt P02769)", "T1 construct": "purchased Sigma A7906", "T1 sequence (P02769 25-607)": "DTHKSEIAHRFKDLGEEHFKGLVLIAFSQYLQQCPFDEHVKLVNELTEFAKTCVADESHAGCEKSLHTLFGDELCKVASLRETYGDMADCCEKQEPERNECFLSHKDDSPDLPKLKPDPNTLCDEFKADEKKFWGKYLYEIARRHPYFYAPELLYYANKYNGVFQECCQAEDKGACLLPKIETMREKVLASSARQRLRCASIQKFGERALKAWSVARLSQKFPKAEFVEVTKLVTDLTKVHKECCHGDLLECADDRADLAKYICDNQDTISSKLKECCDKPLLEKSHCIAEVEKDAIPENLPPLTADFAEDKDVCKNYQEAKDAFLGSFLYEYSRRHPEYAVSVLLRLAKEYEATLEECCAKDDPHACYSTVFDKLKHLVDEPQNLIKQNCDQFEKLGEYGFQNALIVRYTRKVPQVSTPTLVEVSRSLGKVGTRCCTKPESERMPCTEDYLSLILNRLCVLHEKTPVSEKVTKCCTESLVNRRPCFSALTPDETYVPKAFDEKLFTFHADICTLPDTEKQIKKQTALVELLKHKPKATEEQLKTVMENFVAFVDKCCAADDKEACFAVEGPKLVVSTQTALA", "assay": "Spectrofluorometric analysis of fluorogenicity upon BSA binding", "format": "physicochemical", "experimental": "(§1) Spectrofluorometric measurements were carried out by using the Agilent Cary Eclipse instrument. The voltage of the photomultiplier tube (PMT) was set to 600 for EvoSiR4 and EvoSiR6, and for 500 for SiR (4). Fluorescence of the probes was measured at concentrations ranging from 30 to 3000 nM in PBS containing various amounts of bovine serum albumin (BSA) (Sigma, A7906). Quenching experiments for the calculation of BSA binding were performed by adding a 1:1 molar ratio of tannic acid dissolved in ddH2O (Sigma, 403040) to the solution prior to measuring fluorescence."}, "[3]": {"assay": "Spectrofluorometric fluorescence in PBS and effect of pH", "format": "physicochemical", "conditions": "PBS", "experimental": "as §1"}, "human CaSR [4]": {"biological_target": "T2, human CaSR (Homo sapiens, UniProt P41180)", "T2 construct": "host or cells: CCL39 hamster lung fibroblasts stably transfected (HCAR), Geneticin selection", "T2 sequence (P41180 20-1078)": "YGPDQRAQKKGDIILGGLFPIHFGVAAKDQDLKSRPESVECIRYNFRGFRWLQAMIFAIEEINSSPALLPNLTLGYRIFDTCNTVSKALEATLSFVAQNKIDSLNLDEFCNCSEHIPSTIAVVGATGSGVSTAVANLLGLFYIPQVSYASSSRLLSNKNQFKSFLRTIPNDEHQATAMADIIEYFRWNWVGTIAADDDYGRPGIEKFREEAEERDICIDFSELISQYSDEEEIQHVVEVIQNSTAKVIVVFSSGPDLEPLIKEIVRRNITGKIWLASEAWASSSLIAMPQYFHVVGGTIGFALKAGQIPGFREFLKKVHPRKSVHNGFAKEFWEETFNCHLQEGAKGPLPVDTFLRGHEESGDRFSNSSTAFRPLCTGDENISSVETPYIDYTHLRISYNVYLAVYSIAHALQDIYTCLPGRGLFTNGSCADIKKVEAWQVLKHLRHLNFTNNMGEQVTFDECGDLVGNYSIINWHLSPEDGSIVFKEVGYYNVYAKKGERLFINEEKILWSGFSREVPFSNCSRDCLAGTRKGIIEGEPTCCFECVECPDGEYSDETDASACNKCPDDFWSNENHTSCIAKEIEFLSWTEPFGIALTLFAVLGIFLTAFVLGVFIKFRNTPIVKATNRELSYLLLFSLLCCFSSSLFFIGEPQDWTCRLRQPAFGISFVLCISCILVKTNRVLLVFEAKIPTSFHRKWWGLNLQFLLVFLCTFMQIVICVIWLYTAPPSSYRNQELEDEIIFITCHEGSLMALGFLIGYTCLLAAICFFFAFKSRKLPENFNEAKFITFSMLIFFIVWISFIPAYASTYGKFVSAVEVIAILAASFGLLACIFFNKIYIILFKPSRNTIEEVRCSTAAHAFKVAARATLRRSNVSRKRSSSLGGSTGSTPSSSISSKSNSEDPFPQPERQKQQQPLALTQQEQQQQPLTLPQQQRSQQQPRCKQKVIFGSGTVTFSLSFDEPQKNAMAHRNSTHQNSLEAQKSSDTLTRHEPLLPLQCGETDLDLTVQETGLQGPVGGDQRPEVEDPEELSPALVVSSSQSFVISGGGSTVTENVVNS", "assay": "In vitro labeling of CaSR expressing (HCAR) and control (CCL39) cells, fluorescence microscopy", "format": "cell-based", "experimental": "HCAR (CaSR+) and CCL39 (CaSR−) cells were kindly obtained from Novartis AG (Basel, Switzerland) and validated in house. The cells were seeded into μ-slide 18 well plates (ibidi, 81816) at a density of 5000 cells per well and were incubated for 24 h under standard culturing conditions. As our preliminary data indicated considerable nonspecific labeling of dying cells and cellular debris, a viability staining was introduced to ensure probe specificity.[29] Thus, after washing twice with HBSS, cells were incubated in 10 μM Calcein AM solution containing 0.02% Pluronic F-127 and 0.1% DMSO for 45 min at 37 °C. The solution was then removed and washed twice in HBSS before the addition of the HBSS solution containing the SiR probes. All probe solutions were protected from light exposure and contained 0.5% DMSO and various concentrations of BSA depending on the experiment. Incubation with the fluorescent probes was 20 min long, after which a single washing step was introduced with HBSS before imaging. Images of the cells (Calcein: FITC channel, SiR: Cy5 channel) were acquired with a Nikon Eclipse TI2 inverted wide-field fluorescence microscope using a 60× magnification oil immersion objective (Nikon CFI Plan Fluor, 60×, NA = 0.85). For each well, a minimum of 3 images were acquired. For each image, cells were segmented to generate labels on the FITC channel postacquisition using the deep neural network-based Cellpose package in Python 3.9 (model_type: cyto2, diameter: 200, flow_threshold: 0.4).[30] To normalize pixel intensity values across images, for each image, a background value was calculated by taking the average pixel intensity value of the pixels in which no cellular label was present and were negative for the EvoSiR label (triangle thresholding used). For each cell, the skewness of the value distribution and the mean of the Cy5 pixel intensities were calculated. The procedure for evaluating the long-term labeling (72 h) of EvoSiR probes on CCL39 and HCAR cells was similar, with the following modifications: images were retrieved using 10× magnification air objectives (Nikon CFI Plan Fluor 10×, NA = 0.3), in the neural network model, the diameter parameter was set to 30, and only the mean Cy5 pixel intensities per cell object were retrieved."}, "[5]": {"system": "hair cells of the neuromasts within the lateral line organ", "assay": "In vivo labeling of neuromasts in zebrafish larvae", "parameters": "species or system zebrafish (Danio rerio)", "conditions": "4–6 dpf larvae, neuromasts identified with DiAsp", "experimental": "For the neuromast labeling experiments, wild-type 4–6 days post fertilization (dpf) zebrafish larvae were incubated in 200 μL of E3 medium containing different doses of the SiR probes (500–5000 nM), 2.5 μM 4-(4-diethylaminostyryl)-1-methyl-pyridinium-iodid (DiAsp, Sigma, D3418), which specifically labels hair cells in the lateral line in 0.5% DMSO for 30 min (35). Next, washing and anesthesia were achieved by placing the larvae in a 35 mm imaging dish (MolBiTec, Imaging dish 1.5) which contained 500 μL of E3 medium with 168 mg/L MS-222 (Tricaine Mehanesulfonate, Sigma) for 10 min. After removing the solution, fish were side-embedded in the imaging dish using 500 μL of 0.75% low-melting temperature agarose (Sigma, A4018). Wide-field imaging was done using the Zeiss Axio Observer fluorescence microscope (LD A-Plan 10× objective, NA = 0.25), and confocal imaging was done using a Zeiss LSM 800 confocal fluorescence microscope (LD LCI Plan-Apochromat 25× objective, NA = 0.8)."}, "human CaSR [6]": {"biological_target": "T2, human CaSR", "assay": "FLIPR-based functional CaSR calcium assay in HCAR cells", "format": "cell-based", "conditions": "HCAR cells", "experimental": "Hamster lung fibroblasts (CCL39, CaSR−) expressing the recombinant human CaSR (HCAR, CaSR+) and nontransected controls were kindly provided by Novartis AG and were kept in standard culturing conditions (37 °C, 5% CO2) in 1/2 DMEM (Roth, 9005.1)—1/2 F-12 (Sigma, N4888–500 mL) media containing 10% FBS. Media for the HCAR cells contained 500 μg/mL Geneticin as a selection antibiotic (Thermo Fisher, 10131035). Upon reaching 90–95% confluence, cells were detached and seeded into 96-well plates (PerkinElmer, 6005182) at a concentration of 35,000 cells per well and were incubated for 24 h before the experiment. For the functional CaSR calcium assay, cells were first washed twice with HBSS medium (Sigma, H6648), and were incubated in HBSS containing 5 μM Fluo-8 AM and 0.1 mM CaCl2 for 30 min at 37 °C. Calcium transients were measured upon addition of 0.5 mM CaCl2 with the FLIPR Tetra high-throughput cellular screening systems using the 470–495 nm LED excitation and 515–575 nm bandpass emission filters. Probe solutions contained 0.5% DMSO and were added to the cells 10 min prior to the measurement. dF/F0 values were calculated as a change in the peak fluorescence value of the transient for the first 200 data points normalized to the background fluorescence of the well. […] Both cells were washed with HBSS medium twice and then incubated for 10 min at 37 °C in HBSS medium containing 0.1% BSA in the presence or absence of 10 μM evocalcet. Upon the removal of media, cells were incubated in various concentrations of EvoSiR4 and EvoSiR6 in HBSS containing 0.1% BSA for 30 min at 37 °C and were subsequently washed 3 times with 0.1% BSA and resuspended in DMSO before the fluorometric measurement. The fluorescence was measured using a Tecan GENios pro microplate reader with the following parameters: λex = 612 nm, λem = 670 nm, gain = 50 AU. Data for the EvoSiR probes and the evocalcet competition is reported as CaSR-specific fluorescence, which was calculated by dividing the absolute fluorescence of the HCAR cells with the absolute fluorescence of the CCL39 cells for each concentration."}, "[7]": {"assay": "Fluorescence quenching of SiR probes by tannic acid, spectrofluorometer", "format": "physicochemical", "experimental": "as §1"}}, "note": "Where two headings read alike, the source gives them in different places."}
{"molecule": "Cc1cc(C(=O)NCCCCN)ccc1C1=C2C=CC(=[N+](C)C)C=C2[Si](C)(C)c2cc(N(C)C)ccc21", "note": "[SiR (4)]", "values": [{"measurement": "fluorescence lifetime τ", "setting": "[1]", "value": "1.92 ± 0.733", "unit": "ns"}, {"measurement": "quantum yield Φ", "setting": "[1]; 94% ethanol, 750 nM, relative to Rhodamine B", "value": 0.347}, {"measurement": "λem", "setting": "[1]; Table 1", "value": 670}, {"measurement": "λex", "setting": "[1]; Table 1", "value": 650}, {"measurement": "extinction coefficient ε", "setting": "[1]; absorbance at 150–1350 nM, 1 cm cuvette", "value": 7051, "unit": "M^–1 cm^–1"}, {"measurement": "increase in absolute fluorescence upon addition of 1% BSA", "setting": "[2]; 1% BSA compared to PBS", "value": "no effect"}, {"measurement": "change in absolute fluorescence in response to BSA", "setting": "[2]; BSA 0.01–0.1%", "value": "no significant change"}, {"measurement": "absolute fluorescence in PBS relative to EvoSiR4 and EvoSiR6", "setting": "[3]", "value": 10, "unit": "times"}, {"measurement": "fold increase in skewness of pixel intensity distribution, CaSR+ (HCAR) vs CaSR- (CCL39) cells", "setting": "human CaSR [4]; 500 nM probe, 0.1% BSA", "value": "no significant difference"}, {"measurement": "normalized fluorescence of the neuromasts to the background fluorescence, mean and standard deviation", "setting": "[5]", "value": "1.28 ± 0.41"}]}
{"molecule": "C[C@@H](N[C@H]1CCN(c2ccc(CC(=O)NCCCCNC(=O)OC(C)(C)C)cc2)C1)c1cccc2ccccc12", "note": "[compound 1]", "values": [{"measurement": "EC50", "setting": "human CaSR [6]; response to addition of 0.5 mM CaCl2, no BSA, read-out: EC50, positive allosteric modulation of CaSR activity", "value": "0.101 ± 0.006", "unit": "µM"}]}
{"molecule": "[Ca+2].[Cl-].[Cl-]", "note": "[extracellular calcium, CaCl2, reference compound]", "values": [{"measurement": "EC50", "setting": "human CaSR [6]; dF/F0, read-out: EC50 of intracellular calcium release in response to extracellular calcium", "value": "252 ± 10", "unit": "µM"}]}
{"molecule": "tannic acid [reference compound]", "values": [{"measurement": "increase in signal-to-noise ratio of EvoSiR4 labeling", "setting": "human CaSR [4]; 100 nM tannic acid, CaSR+ cells labeled with 500 nM EvoSiR4", "value": 40, "unit": "%"}, {"measurement": "IC50 of quenching the fluorescence of EvoSiR probes and SiR (4)", "setting": "[7]", "value": "low nanomolar ranges"}]}
